“And” between values parts separate entries of the source, which are not always exact repeats. Identical values can stand only once.
Experiments:
[1] = target: T1, human IR (hIR) (Homo sapiens, UniProt P06213); assay: TR-FRET kinase assay of purified hIR; format: biochemical; details: activated hIR 0.5 nM, 10 μM ATP, values given as pIC50 category
T1 construct: containing amino acid residues 979-1382 of human IR; made in house; host or cells: Sf9 cells (baculovirus), same process as hIGF1R

[2] = tested on: Colo205; assay: Inhibition of cell proliferation (CellTiter-Glo or InCell analyzer), Colo205; format: cell-based; details: Homo sapiens, COLO 205, 72 h / 3 days, values given as IC50 category
Method in brief: In one

[3] = target: T2, human IGF1R (hIGF1R) (Homo sapiens, UniProt P08069); assay: TR-FRET kinase assay of purified hIGF1R; format: biochemical; details: activated hIGF1R 0.5 nM, 10 μM ATP, values given as pIC50 category, read-out: IGF-1R pIC50 (converted)
T2 construct: containing amino acid residues 957-1367 of human IGF1R; made in house; host or cells: Sf9 cells (baculovirus)
T2 sequence (P08069 957-1367): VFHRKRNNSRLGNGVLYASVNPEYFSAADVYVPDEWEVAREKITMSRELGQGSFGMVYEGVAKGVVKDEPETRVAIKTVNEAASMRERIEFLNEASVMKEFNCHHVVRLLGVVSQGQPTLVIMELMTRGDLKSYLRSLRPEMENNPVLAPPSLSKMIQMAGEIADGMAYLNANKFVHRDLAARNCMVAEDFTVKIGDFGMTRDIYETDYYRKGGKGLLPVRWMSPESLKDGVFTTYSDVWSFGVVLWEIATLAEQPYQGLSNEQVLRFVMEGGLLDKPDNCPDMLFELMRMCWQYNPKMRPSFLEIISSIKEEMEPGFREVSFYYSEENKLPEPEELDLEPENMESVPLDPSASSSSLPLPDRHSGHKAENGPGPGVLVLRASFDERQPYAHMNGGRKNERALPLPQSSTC

T1 sequence (P06213 979-1382): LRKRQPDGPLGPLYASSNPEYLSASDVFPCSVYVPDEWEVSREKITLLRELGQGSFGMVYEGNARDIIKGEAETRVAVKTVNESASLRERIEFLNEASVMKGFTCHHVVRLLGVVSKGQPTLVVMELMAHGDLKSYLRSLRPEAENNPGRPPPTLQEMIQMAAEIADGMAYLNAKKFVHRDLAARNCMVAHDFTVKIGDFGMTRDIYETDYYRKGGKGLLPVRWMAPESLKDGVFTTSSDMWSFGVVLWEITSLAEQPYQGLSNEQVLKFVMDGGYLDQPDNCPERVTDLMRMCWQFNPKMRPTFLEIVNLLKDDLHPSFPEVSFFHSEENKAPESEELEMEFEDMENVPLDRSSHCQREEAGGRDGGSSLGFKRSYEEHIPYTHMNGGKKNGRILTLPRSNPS

With `COc1cc(N2CCOC[C@@H]2C)ccc1Nc1nc(Nc2cc(F)c(F)cc2C(N)=O)c2cc[nH]c2n1` [Example 105, 4,5-difluoro-2-[(2-{[4-[(3S)-3-methyl-4-morpholinyl]-2-(methyloxy)phenyl]amino}-1H-pyrrolo[2,3-d]pyrimidin-4-yl)amino]benzamide] as the compound, how does the IC50 [1] read?
The IC50 was 0.251 to 1 nM.

And the IC50 [2]?
Its IC50 is less than 250 nM.

What about the IC50 [3] of the same compound?
The IC50 was 0.251 to 1 nM.

`COc1cc(N2CCC(N3CC[C@H](F)C3)CC2)ccc1Nc1nc(Nc2cc(F)ccc2C(N)=O)c2cc[nH]c2n1` [Example 75, 4-fluoro-2-[(2-{[4-{4-[(3S)-3-fluoro-1-pyrrolidinyl]-1-piperidinyl}-2-(methyloxy)phenyl]amino}-1H-pyrrolo[2,3-d]pyrimidin-4-yl)amino]benzamide] was tested. Which IC50 [1] did it give?
The IC50 was 0.251 to 1 nM.

What about the IC50 [2] of the same compound?
The IC50 was less than 250 nM.

What about the IC50 [3] of the same compound?
Its IC50 is 0.251 to 1 nM.

With `CCCNC(=O)c1c(F)cccc1Nc1nc(Nc2cc3c(cc2OC)CCN3C(=O)CN(C)C)nc2[nH]ccc12` [Example 156, 2-[(2-{[1-(N,N-dimethylglycyl)-5-(methyloxy)-2,3-dihydro-1H-indol-6-yl]amino}-1H-pyrrolo[2,3-d]pyrimidin-4-yl)amino]-6-fluoro-N-propylbenzamide] as the compound, how does the IC50 [1] read?
Its IC50 is 1.26 to 3.98 nM.

What about the IC50 [2] of the same compound?
Its IC50 is greater than 1000 nM.

What about the IC50 [3] of the same compound?
Its IC50 is 1.26 to 3.98 nM.

For `COc1cc(N2CCC(N3CC[C@H](F)C3)CC2)ccc1Nc1nc(Nc2cccc(F)c2C(N)=O)c2cc[nH]c2n1` [Example 43, 2-fluoro-6-[(2-{[4-{4-[(3S)-3-fluoro-1-pyrrolidinyl]-1-piperidinyl}-2-(methyloxy)phenyl]amino}-1H-pyrrolo[2,3-d]pyrimidin-4-yl)amino]benzamide], which IC50 [1] is on record?
The IC50 was 1.26 to 3.98 nM.

And the IC50 [2]?
The IC50 was 250 to 1000 nM.

And the IC50 [3]?
The IC50 was 1.26 to 3.98 nM.

Which results are given for `COc1cc(N2CCC(N3CCOCC3)CC2)ccc1Nc1nc(Nc2ccc(F)cc2C(N)=O)c2cc[nH]c2n1` [Example 59, 5-fluoro-2-{[2-({2-(methyloxy)-4-[4-(4-morpholinyl)-1-piperidinyl]phenyl}amino)-1H-pyrrolo[2,3-d]pyrimidin-4-yl]amino}benzamide]?
IC50 [1]: 0.251 to 1 nM; IC50 [2]: < 250 nM; IC50 [3]: 1.26 to 3.98 nM

For `COc1cc(N2CCN(C(C)C)CC2)c(OC)cc1Nc1nc(Nc2cc(F)ccc2C(N)=O)c2cc[nH]c2n1` [Example 82, 4-fluoro-2-[(2-{[4-[4-(1-methylethyl)-1-piperazinyl]-2,5-bis(methyloxy)phenyl]amino}-1H-pyrrolo[2,3-d]pyrimidin-4-yl)amino]benzamide], which IC50 [1] is on record?
The IC50 was 1.26 to 3.98 nM.

And the IC50 [2]?
The IC50 was less than 250 nM.

What about the IC50 [3] of the same compound?
The IC50 was 1.26 to 3.98 nM.

What does the source list for `CNC(=O)c1c(F)cccc1Nc1nc(Nc2cc3c(cc2OC)CCCN3C(=O)CN2CCCCC2)nc2[nH]ccc12` [Example 217, 2-fluoro-N-methyl-6-[(2-{[6-(methyloxy)-1-(1-piperidinylacetyl)-1,2,3,4-tetrahydro-7-quinolinyl]amino}-1H-pyrrolo[2,3-d]pyrimidin-4-yl)amino]benzamide]?
IC50 [1]: 1.26 to 3.98 nM; IC50 [2]: 250 to 1000 nM; IC50 [3]: 1.26 to 3.98 nM

Which results are given for `Cc1cc2c(cc1Nc1nc(Nc3cccc(F)c3C(N)=O)c3cc[nH]c3n1)N(C(=O)CN(C)C)CCC2` [Example 246, 2-[(2-{[1-(N,N-dimethylglycyl)-6-methyl-1,2,3,4-tetrahydro-7-quinolinyl]amino}-1H-pyrrolo[2,3-d]pyrimidin-4-yl)amino]-6-fluorobenzamide]?
IC50 [1]: 0.251 to 1 nM and 1.26 to 3.98 nM; IC50 [2]: 250 to 1000 nM; IC50 [3]: 1.26 to 3.98 nM

Which IC50 [1] does the source give for `CCCN1CCC(c2ccc(Nc3nc(Nc4cc(F)c(F)cc4C(N)=O)c4cc[nH]c4n3)c(OC)c2)CC1` [Example 98, 4,5-difluoro-2-[(2-{[2-(methyloxy)-4-(1-propyl-4-piperidinyl)phenyl]amino}-1H-pyrrolo[2,3-d]pyrimidin-4-yl)amino]benzamide] here?
Its IC50 is 0.251 to 1 nM.

And the IC50 [2]?
Its IC50 is less than 250 nM.

And the IC50 [3]?
The IC50 was 0.251 to 1 nM.

Which IC50 [1] does the source give for `COc1cc(N2CCN(C(C)C)CC2)ccc1Nc1nc(Nc2ccc(Br)cc2C(N)=O)c2cc[nH]c2n1` [Example 68, 5-bromo-2-[(2-{[4-[4-(1-methylethyl)-1-piperazinyl]-2-(methyloxy)phenyl]amino}-1H-pyrrolo[2,3-d]pyrimidin-4-yl)amino]benzamide] here?
The IC50 was 0.251 to 1 nM.

And the IC50 [2]?
The IC50 was less than 250 nM.

And the IC50 [3]?
The IC50 was 1.26 to 3.98 nM.

What does the source list for `COc1cc2c(cc1Nc1nc(Nc3cc(F)cc(F)c3C(=O)NCc3ccc(F)cc3)c3cc[nH]c3n1)N(C(=O)CN(C)C)CC2` [Example 155, 2-[(2-{[1-(N,N-dimethylglycyl)-5-(methyloxy)-2,3-dihydro-1H-indol-6-yl]amino}-1H-pyrrolo[2,3-d]pyrimidin-4-yl)amino]-4,6-difluoro-N-[(4-fluorophenyl)methyl]benzamide]?
IC50 [1]: 1.26 to 3.98 nM; IC50 [2]: > 1000 nM; IC50 [3]: 1.26 to 3.98 nM

What does the source list for `COc1cc(N2CCN(C(C)C)CC2)ccc1Nc1nc(Nc2cccc3c2C(=O)NC3)c2cc[nH]c2n1` [Example 199, 7-[(2-{[4-[4-(1-methylethyl)-1-piperazinyl]-2-(methyloxy)phenyl]amino}-1H-pyrrolo[2,3-d]pyrimidin-4-yl)amino]-2,3-dihydro-1H-isoindol-1-one]?
IC50 [1]: 1.26 to 3.98 nM; IC50 [2]: < 250 nM; IC50 [3]: 1.26 to 3.98 nM

How did the IC50 [1] turn out when `COc1cc2c(cc1Nc1nc(Nc3cccc(F)c3C(N)=O)c3cc[nH]c3n1)N(C(=O)CN1CCCC1)CC2` [Example 138, 2-fluoro-6-[(2-{[5-(methyloxy)-1-(1-pyrrolidinylacetyl)-2,3-dihydro-1H-indol-6-yl]amino}-1H-pyrrolo[2,3-d]pyrimidin-4-yl)amino]benzamide] was run?
Its IC50 is 0.251 to 1 nM.

What about the IC50 [2] of the same compound?
The IC50 was 250 to 1000 nM.

What about the IC50 [3] of the same compound?
Its IC50 is 1.26 to 3.98 nM.

`CCC(C)N1CCc2cc(OC)c(Nc3nc(Nc4cccc(F)c4C(N)=O)c4cc[nH]c4n3)cc2C1` (centres unmarked) [Example 237, 2-fluoro-6-[(2-{[6-(methyloxy)-2-(1-methylpropyl)-1,2,3,4-tetrahydro-7-isoquinolinyl]amino}-1H-pyrrolo[2,3-d]pyrimidin-4-yl)amino]benzamide] was tested. Which IC50 [1] did it give?
Its IC50 is 1.26 to 3.98 nM.

And the IC50 [2]?
The IC50 was 250 to 1000 nM.

What about the IC50 [3] of the same compound?
Its IC50 is 1.26 to 3.98 nM.

For `COc1cc(N2CCN(C(C)C)CC2)ccc1Nc1nc(Nc2cccc(F)c2C(N)=O)c2cc[nH]c2n1` [Example 46, 2-fluoro-6-[(2-{[4-[4-(1-methylethyl)-1-piperazinyl]-2-(methyloxy)phenyl]amino}-1H-pyrrolo[2,3-d]pyrimidin-4-yl)amino]benzamide], which IC50 [2] is on record?
Its IC50 is less than 250 nM.

And the IC50 [3]?
Its IC50 is 1.26 to 3.98 nM.

What does the source list for `COc1cc(N2CCN(C(C)C)CC2)c(F)cc1Nc1nc(Nc2cccc(F)c2C(N)=O)c2cc[nH]c2n1` [Example 48, 2-fluoro-6-[(2-{[5-fluoro-4-[4-(1-methylethyl)-1-piperazinyl]-2-(methyloxy)phenyl]amino}-1H-pyrrolo[2,3-d]pyrimidin-4-yl)amino]benzamide]?
IC50 [2]: 250 to 1000 nM; IC50 [3]: 1.26 to 3.98 nM

Which results are given for `COc1cc(N2CCN(CCS(C)(=O)=O)CC2)c(C)cc1Nc1nc(Nc2cccc(F)c2C(N)=O)c2cc[nH]c2n1` [Example 52, 2-fluoro-6-({2-[(5-methyl-2-(methyloxy)-4-{4-[2-(methylsulfonyl)ethyl]-1-piperazinyl}phenyl)amino]-1H-pyrrolo[2,3-d]pyrimidin-4-yl}amino)benzamide]?
IC50 [2]: > 1000 nM; IC50 [3]: 1.26 to 3.98 nM

What does the source list for `COc1c(Nc2nc(Nc3cccc(F)c3C(N)=O)c3cc[nH]c3n2)ccc(N2CCN(C(C)C)CC2)c1F` [Example 51, 2-fluoro-6-[(2-{[3-fluoro-4-[4-(1-methylethyl)-1-piperazinyl]-2-(methyloxy)phenyl]amino}-1H-pyrrolo[2,3-d]pyrimidin-4-yl)amino]benzamide]?
IC50 [2]: 250 to 1000 nM; IC50 [3]: 1.26 to 3.98 nM

Source: patent US7981903B2, “2-[2-{phenylamino}-1H-pyrrolo[2,3-D]pyrimidin-4-yl)amino] benzamide derivatives as IGF-1R inhibitors for the treatment of cancer” (GlaxoSmithKline LLC, priority 2007, dated 2011)
